Data on 1 compound can be found in patent publication US6919344B2, “N-substituted indole-3-glyoxylamides having anti-asthmatic, antiallergic and immunosuppressant/immuno-modulating action” (ASTA MEDICA, Aktiengesellschaft, priority 1996, dated 2005).

Molecules are shown by their SMILES.

The subject of data set [1] is lymphoproliferation. The data set can be described thus: Inhibition of lymphoproliferation (colorimetric MTT assay). In kind it is cell-based. From the text: Colorimetric Assay (Based on the MTT Test) for the Non-Radioactive Quantification of Cell Proliferation and Survival Ability
MTT is used for the quantitative determination of cell proliferation and activation, for example, in the reaction on growth factors and cytokines such as IL-2 and IL-4 and also for the quantification of the antiproliferative or toxic effects.
The assay is based on the cleavage of yellow tetrazolium salt MTT to give purple-red formazan crystals by metabolically active cells.
The cells, cultured in a 96-hole tissue culture plate, are incubated for about 4 h with yellow MTT solution. After this incubation time, purple-red formazan salt crystals are formed. These salt crystals are insoluble in aqueous solutions, but can be dissolved by addition of solubilizer and by incubation of the plates overnight.
The dissolved formazan product is quantified spectrophotometrically using an ELISA reader. An increase in the number of living cells results in an increase in the total metabolic activity in the sample. This increase correlates directly with the amount of the purple-red formazan crystals formed, which are [sic] measured by the absorption.
For orientation: Formazan colour is commonly taken as a measure of viable cells.

Data set [2] relates to CD3-induced IL-2 production. The data set can be described thus: Inhibition of CD3-induced IL-2 production. The class given is cell-based.
In data set [3] the target is recombinant human Cyp B (Homo sapiens, UniProt P23284). The data set can be described thus: Peptidylprolyl isomerase (PPIase) activity inhibition assay. In kind it is biochemical. As to conditions: Cyp B incubated with 1 μM substance for 15 min, 10° C. Here is the method: Assays for the Determination of Peptidylprolyl Isomerase (PPIase) Activity and Inhibition
The PPIase activity of the cyclophilins was measured enzymatically according to Fischer et al. (1984). After isomerization of the substrate by the peptidyl prolyl isomerase, this is accessible to chymotrypsin, which cleaves the chromophore p-nitroaniline. For the determination of inhibition of the PPIase activity by substance, recombinant human Cyp B was used. The interaction of Cyp B with a potential inhibitor was carried out as follows:
A certain concentration of purified Cyp B was incubated with 1 μM substance for 15 min. The PPIase reaction was started by addition of the substrate solution to the reaction mixture which contains HEPES buffer, chymotrypsin and either test or control samples. Under these conditions, first-order kinetics were obtained with a constant Kobserved=K0+Kenz, where K0 is the spontaneous isomerization and Kenz is the rate of isomerization of the PPIase activity. The extinction values which correspond to the amount of the chromophore cleaved were measured using a Beckman DU 70 spectrophotometer at a constant reaction temperature of 10° C.
The observed residual activity in the presence of various substances was compared with the cyclophilins only treated with solvent. The results were given in % residual activity. Cyclosporin A (CsA) was used as the reference compound. […]

The test system of data set [4] is "late phase" eosinophilia in the BAL. The data set is described as follows: Inhibition of the "late phase" eosinophilia in the BAL 24 hours after allergen challenge in guinea pigs. The class given is in vivo. Here is the method:
Inhibition of the “Late Phase” eosinophilia in the BAL 24 Hours after Allergen Challenge in Guinea Pigs
Male guinea pigs (200-250 g, Dunkin Hartley Shoe) were actively sensitized subcutaneously with ovalbumin (10 μg of ovalbumin+1 mg of Al(OH)3) and boosted 2 weeks later. One week after boosting with ovalbumin, the animals were exposed to an inhalation challenge with ovalbumin (0.5% strength solution) for 20-30 seconds. 24 hours later, the animals were killed by means of an overdose of urethane, exsanguinated and a bronchoalveolar lavage (BAL) was carried out using 2×5 ml of 0.9% strength physiological saline solution.
The lavage fluid was collected and centrifuged at 400 g for 10 minutes, and the pellets were suspended in 1 ml of 0.9% strength physiological saline solution. The eosinophils were counted microscopically in a Neubauer chamber after staining by means of Becton Dickinson test kit No. 5877. This test kit contains Phloxin B as a selective stain for eosinophils. The eosinophils in the BAL was [sic] counted here for each animal and expressed as eosinophils (millions/animal). For each group the mean value and standard deviation were determined. The percentage inhibition of eosinophilia for the group treated with test substance was calculated according to the following formula: (A−B)−(B−C)/(A−C)×100=% inhibition in this formula A eosinophils correspond to the untreated challenge group, B eosinophils to the treated group and C eosinophils to the unchallenged control group.
The animals were treated with a histamine H1 antagonist (azelastine; 0.01 mg/kg p.o.) 2 hours before allergen challenge to avoid death. The administration of the test substances or of the vehicle was carried out 4 hours after allergen challenge.

Chain of recombinant human Cyp B (P23284 34-216): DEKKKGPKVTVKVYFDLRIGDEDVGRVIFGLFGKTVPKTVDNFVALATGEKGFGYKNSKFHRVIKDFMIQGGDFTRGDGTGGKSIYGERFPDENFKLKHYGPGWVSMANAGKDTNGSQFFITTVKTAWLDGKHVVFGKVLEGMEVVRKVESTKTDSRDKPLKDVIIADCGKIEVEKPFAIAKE

On to `O=C(Nc1ccncc1)C(=O)c1cn(Cc2ccc(F)cc2)c2ccccc12` [Ex. 1, N-(Pyridin-4-yl)-[1-(4-fluorobenzyl)indol-3-yl]glyoxylamide], for which the results for the inhibition at 0.1 µM in data set [1] (Conc. 0.1 μM) and in data set [2] (Conc. 0.1 μM) were 18% and 34%, respectively. The inhibition at 1 µM in data set [1] (Conc. 1 μM) was determined as 39%; in data set [2] (Conc. 1 μM), 72%. The inhibition at 10 µM in data set [1] (Conc. 10 μM) was found to be 61%; in data set [2] (Conc. 10 μM), 95%. Besides, in data set [3], the “Inhibition of PPIase activity” value was 80-100%. The results for the “% Inhibition of the "late phase" eosinophilia 24 h after allergen challenge” value in data set [4] (5 mg/kg i.p. + 4 h after allergen challenge), in data set [4] (10 mg/kg i.p. + 4 h after allergen challenge) and in data set [4] (30 mg/kg p.o. + 4 h after allergen challenge) were 27.8%, 55.4% and 56.1%, respectively.

In general, inhibition refers to the percentage by which the read-out fell short of the control. A lower inhibition goes with a response near the control.
